According to patent publication EP0335369A2, “New anthracycline derivatives and processes for the preparation of the same” (priority 1988, dated 1989):
Converted amounts (≈) assume the structure as drawn. Like-named read-outs stand apart in the source and are kept apart here.

How the values were obtained:
Leukemia L-1210 cells [1] = assay: Test 1: antitumor activity against leukemia induced in CDF1 mice by Leukemia L-1210 cells (life-span increase); format: in vivo; conditions: intraperitoneally once per day for 9 consecutive days, observation 60 days
Experimental: Antitumor activities against leukemia in CDF, mice as induced by mouse leukemia, Leukemia L-1210 cells
After an elapsed time of 24 hours, a compounds of the formula (I) of this invention to be tested was administered intraperitoneally for 9 consecutive days once per day. Observation was made for 60 days, where survival days of each mouse tested were recorded. In comparison with the control test wherein mice were treated with the administration of physiological saline alone, the increase (%) in the life-span of the treated mice was calculated as T/C %, where T is the mean survival days of the treated animals and C is the mean survival days of the untreated control animals. For the comparison, daunomycin and adriamycin were also tested in the same manner.

P388/ADR (resistant) = assay: Test 2: growth inhibition of cultured mouse leukemia cells, 72 hours incubation; format: cell-based; conditions: P 388/ADR cells
Experimental: (§1) 7-O-(2,6-Dideoxy-2-fluoro-«-L-mannopyranosyl)adriamycinone 14-O-hemipimelate, which is a compounds according to this invention, was then added at varying concentrations. The incubation of the cells was thereafter continued for 72 hours to measure the 50% inhibitory concentration (ICso, ng/m t) of the test compound against the growth of the tunmor cells.

[2] = test system: mouse leukemia P 388/S (sensitive); assay: as above; format: cell-based; conditions: P 388/S cells
Experimental: as §1

[3] = Solubility in phosphate buffer solution of pH 7.4 at room temperature; format: physicochemical; conditions: for solubility: room temperature
Leukemia L-1210 cells [4] = assay: Test 3: antitumor activity against leukemia induced in CDF1 mice by Leukemia L-1210 cells (procedure of Test 1 repeated); format: in vivo; conditions: intraperitoneally once per day for 9 consecutive days, observation 60 days
Experimental: Antitumor activities against leukemia in CDF1 mice as induced by mouse leukemia, Leukemia L-1210 cells
To evaluate the antitumor effects of the compounds of the formula (I') according to the sixth aspect of this invention against experimental tumors in animals, the procedure of Test 1 given hereinbefore is repeated. Thus, CDF1 mice were intraperitoneally transplanted with cells of Leukemia L-1210 (at a dose of 1 x 10^5 cells/mouse). After an elapsed time of 24 hours from the tumor transplantation, a test compound of the formula (I') of the sixth aspect invention to be evaluated was administered intraperitoneally for 9 consecutive days once per day. Observation was made for 60 day, where survival days of each mouse tested were recorded. In comparison with the control test wherein mice were treated with the administration of physiological saline alone, the increase (%) in the life-span of the treated mice was calculated as T/C %, where T is the mean survival days of the treated animals and C is the mean survival days of the untreated control animals. For the comparison, daunomycin and adriamycin were also tested in the same manner.

[5] = aqueous buffer, compounds (Ic), phosphate buffer solution of pH 7.4 (0.05 M KH2PO4-NaOH), read-out: Solubility

Compound | % Increase in life-span (T/C, %) (Leukemia L-1210 cells [1]; Dose 0.15 mg/kg/day) | % Increase in life-span (T/C, %) (Leukemia L-1210 cells [1]; Dose 0.3 mg/kg/day) | % Increase in life-span (T/C, %) (Leukemia L-1210 cells [1]; Dose 0.6 mg/kg/day) | % Increase in life-span (T/C, %) (Leukemia L-1210 cells [1]; Dose 1.25 mg/kg/day) | solubility [3, 5] | % Increase in life-span (T/C, %) (Leukemia L-1210 cells [4]; Dose 0.04 mg/kg/day) | % Increase in life-span (T/C, %) (Leukemia L-1210 cells [4]; Dose 0.08 mg/kg/day) | % Increase in life-span (T/C, %) (Leukemia L-1210 cells [4]; Dose 0.15 mg/kg/day) | % Increase in life-span (T/C, %) (Leukemia L-1210 cells [4]; Dose 0.3 mg/kg/day) | % Increase in life-span (T/C, %) (Leukemia L-1210 cells [4]; Dose 0.6 mg/kg/day) | % Increase in life-span (T/C, %) (Leukemia L-1210 cells [4]; Dose 1.25 mg/kg/day) | further results
COc1cccc2c1C(=O)c1c(O)c3c(c(O)c1C2=O)C[C@@](O)(C(=O)COC(=O)CCCCCC(=O)O)C[C@@H]3O[C@@H]1O[C@@H](C)[C@H](O)[C@@H](O)[C@H]1F [Example 9] | 123% | 274% | >329% | >346% | 32000 µg/mL (≈ 45400 µM) | – | – | – | – | – | – | % Increase in life-span (T/C, %) (Leukemia L-1210 cells [1]; Dose 2.5 mg/kg/day): >686%; % Increase in life-span (T/C, %) (Leukemia L-1210 cells [1]; Dose 5 mg/kg/day): >463%; IC50 (P388/ADR (resistant); Mus musculus, P388/ADR, read-out: IC50 (ng/mℓ) P 388/ADR): 39.8 ng/mL (≈ 0.0565 µM); IC50 ([2]; Mus musculus, P388/S, read-out: IC50 (ng/mℓ) P 388/S): 0.3 ng/mL (≈ 0.000426 µM)
C[C@@H]1O[C@@H](O[C@H]2C[C@](O)(C(=O)COC(=O)CCCCC(=O)O)Cc3c(O)c4c(c(O)c32)C(=O)c2ccccc2C4=O)[C@H](F)[C@H](O)[C@@H]1O [Example 17, 4-demethoxy-7-O-(2,6-dideoxy-2-fluoro-α-L-talopyranosyl)adriamycinone 14-0-hemiadipate] | – | – | – | – | – | 99% | 99% | 130% | 166% | 242% | > 296% | solubility ([3]; aqueous buffer, compounds (I'-c) or (I'-d), phosphate buffer solution of pH 7.4 (0.05M KH2PO4-NaOH), read-out: Solubility): 6000 µg/mL (≈ 9080 µM)
C[C@@H]1O[C@@H](O[C@H]2C[C@](O)(C(=O)COC(=O)CCCCCC(=O)O)Cc3c(O)c4c(c(O)c32)C(=O)c2ccccc2C4=O)[C@H](F)[C@H](O)[C@H]1O [Example 11, 7-O-(2,6-dideoxy-2-fluoro-a-L-mannopyranosyl)-4-demethoxyadriamycinone 14-0-hemipimelate] | 121% | >363% | 175% | 111% | < 1000 µg/mL | – | – | – | – | – | – | –
4-demethoxy-7-O-(2,6-dideoxy-2-fluoro-α-L-talopyranosyl)adriamycinone 14-0-hemisuberate [Example 19] | – | – | – | – | – | 93% | 96% | 138% | 175% | 245% | 158% | solubility ([3]; compounds (I'-c) or (I'-d), phosphate buffer solution of pH 7.4 (0.05M KH2PO4-NaOH)): <1000 µg/mL; solubility in the phosphate buffer solution (in words) ([3]; phosphate buffer solution (0.05 M KH2PO4-NaOH) at pH 7.4): scarcely soluble
COc1cccc2c1C(=O)c1c(O)c3c(c(O)c1C2=O)C[C@@](O)(C(=O)COC(=O)CCCCCC(=O)O)C[C@@H]3O[C@@H]1O[C@@H](C)[C@@H](O)[C@@H](O)[C@H]1F [Referential compound, 7-O-(2,6-dideoxy-2-fluoro-«-L-talopyranosyl)-adriamycinone 14-0-hemipimelate, reference compound] | – | – | – | – | – | – | – | – | – | – | – | IC50 (ng/mℓ) P 388/ADR (P388/ADR (resistant)): 485 ng/mL (≈ 0.688 µM); IC50 (ng/mℓ) P 388/S [2]: 3.3 ng/mL (≈ 0.00468 µM)
